Consider 17 compounds from patent publication US20230135877A1, “COMPOSITIONS AND METHODS FOR TREATING AND PREVENTING LUNG DISEASE” (Arizona Board of Regents on Behalf of the University of …, priority 2020, published 2023).

Entries after “also recorded” stand apart in the source; their conditions may differ. Where two headings read alike, the source gives them in different places. Where a SMILES comes first, the peptide text is derived from it. Bridges are numbered along the chain shown (N, C = ends). Roman numbers before positions name the chains, in order. Where no end group is shown, it is not given here. [ ]: non-standard residue; d: D form. Nle = CCCC[C@H](N)C(=O)O

For one series, the system named is eosinophils. Nature of the series: Eosinophil cytotoxicity by real-time impedance tracing (xCELLigence RTCA). To be noted: for average AUC (decrease in cell index): 30 μg/ml; for Average magnitude of largest AUC: AUC of normalized cell index, negative AUC = cell death; for normalized cell index tracings over time (peptide activity): after 24 hours; for cytotoxic effect on eosinophils as measured by AUC: 3 μg/ml. It is filed as cell-based, IL-5 transgenic mice. From the text:
IL-5 transgenic mice were euthanized and blood collected by cardiac puncture through the left ventricle. Red blood cells (RBCs) were lysed using a red blood cell lysis solution (Miltenyi Biotec, Auburn CA). Eosinophils were isolated by negative selection using biotin-conjugated antibodies (CD45R, Thy 1.2, F4/80) and magnetic beads, as previously described (see, Dy, A. B. C., et al., 2019 J Immunol 203: 1122-1130; Ledford, J. G., et al., 2012 PLoS One 7: e32436). Purity of each preparation was verified using standard morphometric analysis of cytocentrifuged slides stained with Easy III™ rapid differential staining kit (Azer Scientific, Morgantown Pa.) to be greater than 95%.
High throughput real-time monitoring of eosinophil cell death was assessed by measuring electrical impedance using the xCELLigence Real-Time Cell Analyzer (ACEA Biosciences, San Diego Calif.) as previously described (see, Dy, A. B. C., et al., 2019 J Immunol 203: 1122-1130; Flynn, A. N., et al., FASEB J 27: 1498-1510; Zeng, C., et al., Environ Res 164: 452-458). Using 96-well gold electrode coated plates (E-plates, ACEA Biosciences) incubated at 37° C. and 5% CO2, an initial background reading was obtained with media only. In a total volume of […] were seeded at 1×10^6 cells/well and allowed to settle for ˜5 hours. Test compounds were added at various concentrations (1, 3, 10 and 30 μg/ml) and changes in electrical impedance were measured over time. Impedance measurements were calculated and presented as normalized cell index (see, Flynn, A. N., et al., FASEB J 27: 1498-1510; Zeng, C., et al., Environ Res 164: 452-458), where a decrease in cell index corresponds to an increase in eosinophil cytotoxicity. Impedance tracings over time were derived from averages of 3-4 technical replicates. To quantify and compare cytotoxicity, the area under the curve (AUC) was calculated using cell index values. Half maximal effective concentration (EC50) values were generated using equivalent molar concentrations and their corresponding dose-response curves for each peptidomimetic.

In a further series the test system is mouse model of asthma. Nature of the series: HDM experimental allergen challenge, in vivo mouse model of asthma. The arrangement: species or system mice. To be noted: pre-clinical mouse model of asthma; preliminary data. The source says: FIG. 1A-C. Evaluation of SP-A-derived 10-mer native peptide in an in vivo mouse model of asthma. A) Schematic of HDM experimental allergen challenge. B) Newtonian resistance
(Rn) during methacholine challenge of wild-type mice 6 days after terminal HDM challenge. C) Total eosinophil counts in BAL (left panel) and mucin production (right panel) by PAS scoring. Unpaired t-test, *p<0.05, **p<0.01.

Where [1] appears, read: Table 3 summary of lead peptidomimetics, eosinophils, RTCA, read-out: EC50.

Turning to “Ac-KEQAVEMYTD-NH2 [Peptidomimetic 884, Ac-KEQAVEMYTD-NH2]”, in the series on eosinophils, the EC50 came to 10.6 µM.

In the series with eosinophils, `CCCC[C@H](NC(=O)[C@H](CCC(=O)O)NC(=O)[C@@H](NC(=O)[C@H](CS)NC(=O)[C@H](CCC(N)=O)NC(=O)[C@H](CCC(=O)O)NC(=O)[C@H](CCCCN)NC(=O)CNC(=O)[C@H](CCCNC(=N)N)NC(C)=O)C(C)C)C(=O)N[C@@H](Cc1ccc(O)cc1)C(=O)N[C@H](C(=O)N[C@@H](CC(=O)O)C(N)=O)[C@@H](C)O` [Peptidomimetic 893, Ac-RGKEQCVE-Nle-YTD-NH2] (Ac-RGKEQCVE[Nle]YTD-NH2) displayed an EC50 of 0.038 µM.

“PAGRGKEQCVEMYTDGQWND [20-mer peptide, reference compound]” came in with an EC50 in the series with eosinophils of 14.7 µM. In the series with eosinophils (eosinophils, RTCA), the “average AUC (decrease in cell index)” value was -3.50, the “Average magnitude of largest AUC” value is listed as −3.50, the “Concentration at which average AUC is largest” value (“Concentration” for short) stood at 13.10 µM and the “normalized cell index tracings over time (peptide activity)” value is “decline in peptide activity after 24 hours”. Further, in the series on eosinophils (setting [1]), the EC50 stood at 14.7 µM. In the series with mouse model of asthma, the airway hyperresponsiveness entry is given as “reduce”, the airway mucus production result is “reduce” and the eosinophilia entry is “reduce”.

For the compound `CCCC[C@H](NC(=O)[C@H](CCC(=O)O)NC(=O)[C@@H](NC(=O)[C@H](CS)NC(=O)[C@H](CCC(N)=O)NC(=O)[C@H](CCC(=O)O)NC(=O)[C@H](CCCCN)NC(=O)CNC(=O)[C@H](Cc1c[nH]c2ccccc12)NC(C)=O)C(C)C)C(=O)N[C@@H](Cc1ccc(O)cc1)C(=O)N[C@H](C(=O)N[C@@H](CC(=O)O)C(N)=O)[C@@H](C)O` [Peptidomimetic 892, Ac-WGKEQCVE-Nle-YTD-NH2] (Ac-WGKEQCVE[Nle]YTD-NH2), the EC50 in the series on eosinophils was 0.008 µM. In the series with eosinophils (eosinophils, RTCA), the “Average magnitude of largest AUC” value was −1.07; the “Concentration” value amounted to 0.10 µM; the “magnitude of the calculated AUCs compared with full-length SP-A, 10-mer, 20-mer and several peptidomimetics” value is given as “much smaller”.

In the series with eosinophils, “Ac-KEQCVEMYTD-OH [Peptidomimetic 870, Ac-KEQCVEMYTD-acid]” yielded an EC50 of 10.8 µM.

On to “Ac-GDFRYSDGTPVNYTNWYRGE-NH2 [Peptidomimetic 889]”, for which the EC50 with eosinophils was 1.79 µM.

With “Ac-KEQCVEMYTD-NH2 [Peptidomimetic 856, Ac-KEQCVEMYTD-NH2]”, in the series on eosinophils, the EC50 amounted to 8.21 µM.

In the case of `CSCC[C@H](NC(=O)[C@H](CCC(=O)O)NC(=O)[C@@H](NC(=O)[C@H](CSSC[C@H](NC(=O)[C@H](CCC(N)=O)NC(=O)[C@H](CCC(=O)O)NC(=O)[C@H](CCCCN)NC(C)=O)C(=O)N[C@H](C(=O)N[C@@H](CCC(=O)O)C(=O)N[C@@H](CCSC)C(=O)N[C@@H](Cc1ccc(O)cc1)C(=O)N[C@H](C(=O)N[C@@H](CC(=O)O)C(N)=O)[C@@H](C)O)C(C)C)NC(=O)[C@H](CCC(N)=O)NC(=O)[C@H](CCC(=O)O)NC(=O)[C@H](CCCCN)NC(C)=O)C(C)C)C(=O)N[C@@H](Cc1ccc(O)cc1)C(=O)N[C@H](C(=O)N[C@@H](CC(=O)O)C(N)=O)[C@@H](C)O` [Peptidomimetic 868, (Ac-KEQCVEMYTD-NH2)2] (I: Ac-KEQCVEMYTD-NH2 / II: Ac-KEQCVEMYTD-NH2; disulfide I:4-II:4), the “cytotoxic effect on eosinophils as measured by AUC” value in the series on eosinophils is “most robust cytotoxic effect; also recorded: most comparable response to full-length SP-A”. Besides, in the series on eosinophils (eosinophils, RTCA), the “Average magnitude of largest AUC” value is −9.21 and the “Concentration” value worked out at 1.17 µM. The EC50 with eosinophils (setting [1]) is 10.9 µM.

For `CCCC[C@H](NC(=O)[C@H](CCC(=O)O)NC(=O)[C@@H](NC(=O)[C@H](C)NC(=O)[C@H](CCC(N)=O)NC(=O)[C@H](CCC(=O)O)NC(=O)[C@H](CCCCN)NC(=O)CNC(=O)[C@H](Cc1c[nH]c2ccccc12)NC(C)=O)C(C)C)C(=O)N[C@@H](Cc1ccc(O)cc1)C(=O)N[C@H](C(=O)N[C@@H](CC(=O)O)C(N)=O)[C@@H](C)O` [Peptidomimetic 891, Ac-WGKEQAVE-Nle-YTD-NH2] (Ac-WGKEQAVE[Nle]YTD-NH2), the EC50 with eosinophils amounted to 1.03 µM.

As for `CCCC[C@H](NC(=O)[C@H](CCC(=O)O)NC(=O)[C@@H](NC(=O)[C@H](CS)NC(=O)[C@H](CCC(N)=O)NC(=O)[C@H](CCC(=O)O)NC(=O)[C@H](CCCCN)NC(C)=O)C(C)C)C(=O)N[C@@H](Cc1ccc(O)cc1)C(=O)N[C@H](C(=O)N[C@@H](CC(=O)O)C(N)=O)[C@@H](C)O` [Peptidomimetic 882, Ac-KEQCVE-Nle-YTD-NH2] (Ac-KEQCVE[Nle]YTD-NH2), the EC50 in the series on eosinophils was found to be 3 µM.

Take “H-KEQCVEMYTD-OH [Peptidomimetic 871, H-KEQCVEMYTD-acid]”: in the series on eosinophils, the EC50 was found to be 2.52 µM.

In the series on eosinophils, “Ac-SDGTPVNYTNWYRGEPAGRGKEQ-NH2 [Peptidomimetic 888]” had an EC50 of 0.035 µM.

Consider “Full-length SP-A: Full-length surfactant protein A; served as the positive control for eosinophil cell death”, for which, in the series with eosinophils (eosinophils, RTCA), the “average AUC (decrease in cell index)” value was −13.89, the “Average magnitude of largest AUC” value is listed as −13.89, the “Concentration” value came out at 0.86 µM and the eosinophil cell death result was “induced eosinophil cell death in a dose-dependent manner”. In addition, the EC50 in the series with eosinophils (eosinophils, RTCA, concentration range 1, 3, 10 and 30 μg/ml, read-out: EC50 (half maximal effective concentration, based on AUC at each dose)) was 0.158 µM.

Regarding `CCCC[C@H](NC(=O)[C@H](CCC(=O)O)NC(=O)[C@@H](NC(=O)[C@H](CS)NC(=O)[C@H](CCC(N)=O)NC(=O)[C@H](CCC(=O)O)NC(=O)[C@H](CCCCN)NC(=O)CNC(=O)[C@@H](Cc1c[nH]c2ccccc12)NC(C)=O)C(C)C)C(=O)N[C@@H](Cc1ccc(O)cc1)C(=O)N[C@H](C(=O)N[C@@H](CC(=O)O)C(N)=O)[C@@H](C)O` [Peptidomimetic 894, Ac-wGKEQCVE-Nle-YTD-NH2] (Ac-[dW]GKEQCVE[Nle]YTD-NH2), the EC50 in the series on eosinophils was found to be 0.012 µM. Besides, in the series on eosinophils (eosinophils, RTCA), the “Average magnitude of largest AUC” value was −1.63; the “Concentration” value turned out to be 0.01 µM; the “magnitude of the calculated AUCs compared with full-length SP-A, 10-mer, 20-mer and several peptidomimetics” value is “much smaller”.

In the series on eosinophils, “Ac-KEQCVEMYTD (N-terminus assumed) [10-mer peptide, KEQCVEMYTD, reference compound]” came in with an EC50 of 16 µM. Besides, in the series with eosinophils (eosinophils, RTCA), the “average AUC (decrease in cell index)” value is -2.62, the “Average magnitude of largest AUC” value is on record as −2.62, the “Concentration” value was 24.00 µM and the “normalized cell index tracings over time (peptide activity)” value was “decline in peptide activity after 24 hours”. Also, the EC50 with eosinophils (setting [1]) worked out at 16 µM. Further, in the series on mouse model of asthma, the airway hyperresponsiveness entry is given as “reduce”, the airway mucus production result is given as “reduce” and the eosinophilia entry is “reduce”.

On to “Ac-WGKEQCVEMYTD-NH2 [Peptidomimetic 867, Ac-WGKEQCVEMYTD-NH2]”, for which the “cytotoxic effect on eosinophils as measured by AUC” value in the series on eosinophils was “most robust cytotoxic effect; also recorded: most comparable response to full-length SP-A”. For the same compound, in the series on eosinophils (eosinophils, RTCA), the “Average magnitude of largest AUC” value is listed as −9.06 and the “Concentration” value came out at 1.96 µM. The EC50 with eosinophils (setting [1]) came to 0.95 µM.

In the series with eosinophils, “Ac-KEQSVEMYTD-NH2 [Peptidomimetic 883, Ac-KEQSVEMYTD-NH2]” came in with an EC50 of 9.41 µM.
